# Experimental data from ChEMBL document CHEMBL1137332, “Crystal structures of human adenosine kinase inhibitor complexes reveal two distinct binding modes” (J Med Chem, 2006).
# Target: Adenosine kinase (Homo sapiens, UniProt P55263)
# Assay: Inhibition of human cytosolic AK
# Chain of Adenosine kinase (P55263 whole entry): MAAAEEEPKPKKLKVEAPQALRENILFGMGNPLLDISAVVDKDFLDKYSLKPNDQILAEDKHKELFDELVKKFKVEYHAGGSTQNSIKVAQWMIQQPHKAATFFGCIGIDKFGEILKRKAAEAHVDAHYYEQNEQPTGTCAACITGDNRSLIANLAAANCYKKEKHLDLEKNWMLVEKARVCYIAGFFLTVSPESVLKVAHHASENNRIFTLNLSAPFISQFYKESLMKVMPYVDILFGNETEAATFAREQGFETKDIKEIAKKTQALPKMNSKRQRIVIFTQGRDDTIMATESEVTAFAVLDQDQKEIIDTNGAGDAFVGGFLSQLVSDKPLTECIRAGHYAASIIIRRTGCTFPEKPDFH
row,SMILES,IC50 [nM]
1,Nc1cc(C#Cc2ccc(N3CCOCC3)nc2)ncn1,120
2,CN(C)c1ccc(C#Cc2ncnc(N)c2-c2ccccc2)cc1,20
3,Cc1nc(N)c(-c2ccccc2)c(C#Cc2ccc(N(C)C)cc2)n1,> 1000
4,CN(C)c1ccc(C#Cc2ncnc(N)c2-c2ccc3c(c2)OCO3)cc1,9
5,Nc1ncnc(C#Cc2ccc(N3CCOCC3)nc2)c1Cc1ccccc1,40

# Next, values leading:
row,IC50 [nM],SMILES
1,68,CN(C)c1ccc(-c2c(N)ncnc2C#Cc2ccc(N3CCOCC3)nc2)cc1
2,2.5,Nc1ncnc(C#Cc2ccc(N3CCOCC3)nc2)c1CCCc1ccccc1
